In patent US20120202885A1, “METHODS, ASSAYS AND COMPOSITIONS FOR TREATING RETINOL-RELATED DISEASES” (ReVision Therapeutics, Inc., priority 2004, published 2012):

How the values were obtained:
[1] = molecular target: Retinol Binding Protein (RBP) (Homo sapiens, UniProt P02753); assay: Fluorescence quenching study of MPR binding to retinol binding protein
Protocol: Apo-RBP at 0.5 μM was incubated with 0, 0.25, 0.5, 1 and 2 μM of MPR in PBS at room temperature for 1 hour, respectively. As controls, the same concentration of Apo-RBP was also incubated with 1 μM of HPR or 1 μM of atROL. All mixtures contained 0.2% Ethanol (v/v). The emission spectra were measured between 290 nm to 550 nm with excitation wavelength at 280 nm and 3 nm bandpass.

ABCA4−/− mice = assay: Drug holiday after 28 days of HPR: A2E and precursors in eyecup extracts (HPLC); assay type: in vivo; details: 28-day drug holiday
Protocol: HPR (10 mg/kg in DMSO) was administered to ABCA4−/− mice daily for a period of 28 days. Control ABCA4−/− mice received only DMSO for the same period. […] Importantly, the observed reductions in lipofuscin autofluorescence persist long after cessation of HPR therapy. HPR (10 mg/kg), or DMSO, administration was discontinued following 28 days of treatment and re-evaluated A2E and precursor levels after 2 weeks and after 4 weeks.
We examined eyecup extracts by HPLC and employed detection by absorbance and fluorimetry. Identity of the indicated peaks was confirmed by on-line spectral analysis and by co-elution with authentic standards. […] Further, the A2E and precursor (A2PE-H2 and A2PE) levels after a […] or 28-day drug holiday remained at or near the levels immediately following 28 days of treatment (i.e., ca. 50% reduction relative to control), although after the 28-day drug holiday, the amount of A2E and precursor (A2PE-H2 and A2PE) had increased by a few percentage points relative to the 12-day drug holiday levels. […] It is clear that peak fluorescence tracks with the abundance of A2E, A2PE and A2PE-H2.

TTR binding to RBP = TTR binding to RBP (Homo sapiens, UniProt P02753); assay: Size exclusion study of transthyretin (TTR) binding to RBP; details: 10 μM Apo-RBP; for binding of ligand-RBP to TTR: gel filtration, 360/330 nm absorbance
Protocol: Apo-RBP at 10 μM was incubated with […] in PBS at room temperature for 1 hour. 10 μM of TTR was then added to the solution, and the mixture was incubated for another hour at room temperature. […] of the sample mixtures with and without TTR addition were analyzed by BioRad Bio-Sil SEC 125 Gel Filtration Column (300×7.8 mm). In control experiments, atROL-RBP and atROL-RBP-TTR mixture were analyzed in the same manner.

retinol-RBP-TTR complex = retinol-RBP-TTR complex (Homo sapiens, UniProt P02753); assay: High-throughput FRET assay for RBP/TTR interaction; assay type: binding; details: conditions as for HPR, FIG. 6
Excerpt: Reduction of serum retinol and RBP are correlated with concomitant reductions in toxic lipofuscin fluorophores. Because compounds that affect RBP-TTR interaction will directly affect fluorophore levels in the eye, a high-throughput screen for small molecules which prevent interaction of RBP with TTR was developed. This screen employs probe-labeled forms of RBP and TTR which participate in a unique fluorescence resonance energy transfer (FRET) event when complexed. Compounds which interfere with RBP-TTR interaction prevent FRET. Sample spectra taken during the course of this type of assay are shown, in FIG. 4. […] The sample is incubated at 37° C. for 30 min and then illuminated with 330 nm light. The emission spectra are shown in the range of 400-600 nm. HPR binds to RBP and prevents interaction with TTR, and here this property of HPR is utilized here to validate the ability of this screen to detect inhibition of RBP-TTR interaction. […] Additionally, the design of this assay permits discrimination between compounds which interact with RBP versus those which interact with TTR. Thus, by using two distinct excitation energies (280 nm and 330 nm, for protein and retinol, respectively) and implementing simultaneous monitoring of the retinol and TTR-probe fluorescence, the “target” of a presumptive small molecule can be easily determined.
Accordingly, HPR was employed at varied concentrations (from 0-4 μM), using the conditions specified in Example 7, to evaluate the high throughput assay.
The mechanism of action underlying this effect can be explained by the disruption of RBP-TTR interactions. In order to explore this possibility and to further validate the RBP-TTR screen, the effects of all-trans retinoic and 13-cis retinoic acid, using the conditions the conditions specified for analysis of HPR, were examined.

[2] = several investigators; Berni et al. 1993; cited from earlier work

## COc1ccc(NC(=O)\C=C(C)/C=C/C=C(C)\C=C\C2=C(C)CCCC2(C)C)cc1 (stereo in doubt) [MPR, N-(4-methoxyphenyl)retinamide]
[1]; 0.5 μM Apo-RBP, 0-2 μM MPR, room temperature 1 hour, excitation 280 nm
  quenching of RBP fluorescence: concentration-dependent quenching
[1]; controls at 1 μM
  degree of quenching compared with other ligands: smaller than those by atROL and HPR
[1]; for 0.5 μM of RBP
  concentration at which quenching saturated: 1 µM
ABCA4−/− mice
  detection of HPR or HPR metabolites in the eyes: unable to detect
TTR binding to RBP
  binding of RBP to ligand (360 nm absorbance in RBP elution peak): RBP binds to MPR
TTR binding to RBP; 10 μM TTR
  effect on binding of TTR to RBP: inhibits the binding of TTR to RBP
  binding of ligand-RBP to TTR: did not bind to TTR

## CC1=C(/C=C/C(C)=C/C=C/C(C)=C\C(=O)O)C(C)(C)CCC1 [13-cis retinoic acid, 13-cis-retinoic acid]
retinol-RBP-TTR complex
  inhibition of RBP-TTR interaction: inhibitors of RBP-TTR interaction

## CC1=C(/C=C/C(C)=C/C=C/C(C)=C/C(=O)O)C(C)(C)CCC1 [all-trans retinoic, all-trans-retinoic acid]
[2]
  reduction in circulating RBP and retinol: observed in vivo
retinol-RBP-TTR complex
  inhibition of RBP-TTR interaction: inhibitors of RBP-TTR interaction

## CC1=C(/C=C/C(C)=C/C=C/C(C)=C/CO)C(C)(C)CCC1 [atROL, all-trans retinol]
[1]; 1 μM ligand, 0.5 μM Apo-RBP
  binding to RBP: bind to RBP
TTR binding to RBP; 10 μM TTR
  binding of ligand-RBP to TTR: binds to TTR
